# In patent US10570168B2, “2′ and/or 5′ amino-acid ester phosphoramidate 3′-deoxy adenosine derivatives as anti- cancer compounds” (NuCana plc, priority 2014, dated 2020):
# pIC50: −log10 of the molar value.
# Legend:
# [1] = system: CCRF-CEM; experiment: CellTiterGlo viability assay, initial screening; format: cell-based; details: Homo sapiens, 72 h, read-out: IC50 (relative IC50)
# Outline: (§1)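 Viability is measured with CellTiter-Glo following three days of treatment. Each compound runs as a nine-point titration at 3.16-fold steps, with a lowest final concentration of 19.9 nM, in duplicate wells at 0.5% final DMSO.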
# [2] = system: HL-60; experiment: CellTiterGlo viability assay, initial screening; format: cell-based; details: Homo sapiens, HL-60, 72 h, read-out: IC50 (relative IC50)
# Outline: as §1
# [3] = system: HepG2; experiment: CellTiterGlo viability assay, initial screening; format: cell-based; details: Homo sapiens, HepG2, 72 h, read-out: IC50 (relative IC50)
# Outline: as §1
# [4] = system: K562; experiment: CellTiterGlo viability assay, initial screening; format: cell-based; details: Homo sapiens, K562, 72 h, read-out: IC50 (relative IC50)
# Outline: as §1
# [5] = system: KG-1; experiment: CellTiterGlo viability assay, initial screening; format: cell-based; details: Homo sapiens, KG-1, 72 h, read-out: IC50 (relative IC50)
# Outline: as §1
# [6] = system: MCF-7; experiment: CellTiterGlo viability assay, initial screening; format: cell-based; details: Homo sapiens, MCF7, 72 h, read-out: IC50 (relative IC50)
# Outline: as §1
# [7] = system: MOLT-4; experiment: CellTiterGlo viability assay, initial screening; format: cell-based; details: Homo sapiens, MOLT-4, 72 h, read-out: IC50 (relative IC50)
# Outline: as §1
# [8] = system: CCRF-CEM (TdT positive CEM); experiment: ATP (ViaLight plus) cytotoxicity assay; format: cell-based, Human; details: for pIC50: Homo sapiens, CCRF-CEM
# Description: (§2) Certain compounds of the invention were subjected to further studies to test the cytotoxic activity of certain compounds of the invention and also to measure their activity against 4 haematological cancer cell lines • TdT positive CEM (Human ALL) • TdT negative K562 (Human CML) • TdT negative H1-60 (Human ANLL) • RL (CRL-2261) non-HD lymphoma • The concentrations of the active metabolite dATP (Cordycepin triphosphate) in these cell lines was also measured. • The cytotoxic activity and the intracellular 3′-dATP concentrations were also studied in the presence of hENT1, Adenosine Kinase (AK) and Adenosine Deaminase pharmacological inhibitors in CEM and RL cancer cell lines. Said inhibitors that mimic known cancer resistance mechanisms. Methods Cell Culture
# (§3) HL-60 (ATCC® CCL-240™), K562 (ATCC® CCL-243™), CCRF-CEM (ATCC® CRM-CCL-119™) and RL (ATCC® CRL-2261™) leukaemia cell lines, obtained from the American Type Culture Collection (ATCC), Middlesex. HL-60 and K562 cell lines are deoxynucleotidyl transferase-negative (TdT-ve), whereas CCRF-CEM cell line is TdT+ve.
# (§4) HL-60, K562, CCRF-CEM and RL cell lines were cultured in RPMI-1640 medium (Sigma Aldrich, UK), which were supplemented with 10% Fetal Bovine Serum (FBS) (PAA Laboratories), 1% amphotericin B (5.5 ml) and 1% penicillin/streptomycin (5.5 ml) (PAA Laboratories) and grown in flasks at 37° C. incubator with 5% CO2.
# (§5) The amount of ATP was used as a measurement of cell number and cell viability. ATP ViaLight™ plus assay kit (Lonza, USA: Product No. LT07-121) to detect ATP in cells treated in luminescence compatible 96 well plates (initial concentration of cells was 1×10^4 cells/well) with cordycepin and ProTides at concentrations of: 0, 0.1, 0.5, 1, 5 and 10 μM, followed by incubation for 72 hours at 37° C. incubator with 5% CO2. For inhibitor studies, 10 μM of NBTI or 1 μM EHNA or A-134974 was added and left for 5 minutes before adding the drugs (see section 5 for inhibitor details).
# (§6) After incubation, 50 μl of cell lysis reagent was added to the 96 well plates to release the intracellular ATP, followed by 100 μl of ATP monitoring reagent (AMR). The luminescent values of each well were determined using FLUOstar OPTIMA microplate reader (BMG Labtech) which convert ATP into light by using luciferase enzyme. Therefore, the amount of luminescence produced was directly proportional to the amount of ATP.
# (§7) Cell lines were treated in the same way as described above but before treatment with drugs, a number of inhibitors were added: • 1) Nitrobenzylthioinosine (NBTI) (Sigma-Aldrich, St. Louis, Mo., product # N2255) blocks nucleoside transporters • 2) EHNA hydrochloride (Sigma-Aldrich, St. Louis, Mo., product # E114) blocks adenosine deaminase • 3) Adenosine kinase inhibitor A-134974 dihydrochloride hydrate (Sigma-Aldrich, St. Louis, Mo., product # A2846): blocks adenosine kinase
# (§8) The dose-response curves of cytotoxicity of the drugs was determined using non-linear regression analysis of percentage cell viability versus concentration and EC50 values were obtained. The intracellular assay was conducted in five replicates for each condition. Intracellular assay was determined using paired t test (two-tailed) analysis of 3′ATP/ATP concentration and p-values were obtained. For all the analysis, Prism Software program (GraphPad Software) was used and Microsoft Powerpoint® 2013 was used to plot the results.
# [9] = system: HL-60 (TdT negative); experiment: ATP (ViaLight plus) cytotoxicity assay; format: cell-based, Human
# Description: as §2, §3, §4, §5, §6, §8
# [10] = system: K562 (TdT negative); experiment: ATP (ViaLight plus) cytotoxicity assay; format: cell-based, Human
# Description: as §2, §3, §4, §5, §6, §8
# [11] = system: RL (CRL-2261); experiment: ATP (ViaLight plus) cytotoxicity assay; format: cell-based
# Description: as §2, §3, §4, §5, §6, §7, §8
smiles,measurement,setting,value
"COC(=O)C(C)(C)NP(=O)(OC[C@@H]1C[C@@H](O)[C@H](n2cnc3c(N)ncnc32)O1)Oc1cccc2ccccc12 (stereo partly drawn) [E, Methyl 2-(((((2S,4R,5R)-5-(6-amino-9H-purin-9-yl)-4-hydroxytetrahydrofuran-2-yl)-methoxy)(naphthalen-1-yloxy)phosphoryl)amino)-2-methylpropanoate]",pIC50,[1],4.00 to 4.82
same,pIC50,[2],4.00 to 4.82
same,pIC50,[3],4.00 to 4.82
same,pIC50,[4],< 4.00
same,pIC50,[5],4.00 to 4.82
same,pIC50,[6],4.00 to 4.82
same,pIC50,[7],4.82 to 5.30
same,(FD) fold difference compared to Cordycepin = Cordycepin IC50/ProTide IC50,[8]; CEM (TdT+ve),(2)
same,(FD) fold difference compared to control,"[8]; CEM, IC50 with AK inhibitor",(1)
same,(FD) fold difference compared to control,"[8]; CEM, IC50 with EHNA",(1)
same,(FD) fold difference compared to control,"[8]; CEM, IC50 with NBTI",(2)
same,pIC50,"[8]; 72 h, CEM (TdT+ve), 72 hours",5.00
same,pIC50,"[8]; CEM, Control (no inhibitor)",5.00
same,pIC50,"[8]; CEM, with AK (adenosine kinase inhibitor A-134974, 1 μM)",4.99
same,pIC50,"[8]; CEM, with EHNA 1 μM (adenosine deaminase blocker)",4.87
same,pIC50,"[8]; CEM, with NBTI 10 μM (nucleoside transporter blocker)",4.77
same,(FD) fold difference compared to Cordycepin = Cordycepin IC50/ProTide IC50,[9]; HL-60,(1)
same,pIC50,"[9]; Homo sapiens, HL-60, 72 h",4.99
same,pIC50,"[10]; Homo sapiens, K562, 72 h",4.86
same,(FD) fold difference compared to Cordycepin = Cordycepin IC50/ProTide IC50,[10]; K562,(1)
same,pIC50,"[11]; 72 h, CRL (RL, CRL-2261)",4.96
same,(FD) fold difference compared to Cordycepin = Cordycepin IC50/ProTide IC50,"[11]; CRL (RL, CRL-2261)",(2)
same,pIC50,"[11]; CRL, Control (no inhibitor)",5.09
same,(FD) fold difference compared to control,"[11]; CRL, IC50 with AK inhibitor",(1)
same,(FD) fold difference compared to control,"[11]; CRL, IC50 with EHNA",(1)
same,(FD) fold difference compared to control,"[11]; CRL, IC50 with NBTI",(1)
same,pIC50,"[11]; CRL, with AK (adenosine kinase inhibitor A-134974, 1 μM)",5.15
same,pIC50,"[11]; CRL, with EHNA 1 μM (adenosine deaminase blocker)",5.23
same,pIC50,"[11]; CRL, with NBTI 10 μM (nucleoside transporter blocker)",5.09
